Laboratory results published in paper PMC3779154, “Identification of Therapeutic Candidates for Chronic Lymphocytic Leukemia from a Library of Approved Drugs” (PLoS ONE, 2013).
pEC50, pIC50: −log10 of the molar value. Structures can show the parent of a compound that is named as a salt. Where two headings read alike, the source gives them in different places. Starred links: 1 amine or outer side, 2 acyl side, 3 side chain; linkers in the order of their positions; H or OH if unused. Positions of bridges follow the written chain, without caps; N, C: chain ends. Non-standard residues stand in square brackets, D forms with d. Residues, ends and D or L forms follow the SMILES beside them. Chains are numbered I, II in the order given. Actinocin(9to1) = Cc1c2oc3c(C)ccc(C(=O)[*:1])c3nc-2c(C(=O)[*:2])c(N)c1=O; NMeV = CN[C@H](C(=O)O)C(C)C; Sar = CNCC(=O)O

Legend:
[1] = test system: ME-180 human cervical carcinoma cell line; assay: Cell viability assay, ME-180 cells (NPC library profiling)
Description: Based on the definition of actives, inactives and inconclusive mentioned above, compounds were further clustered hierarchically using Spotfire DecisionSite 8.2 (Spotfire Inc., Cambridge, MA) based on their activity outcomes from the primary screen across a wide variety of cell viability assays against different cell lines or primary patient cells. Each compound was converted into an integer which represents its activity outcome in each cell viability assay. […] Integer 2 represents compounds in “inconclusive” category which is corresponding to light red in the heat map. […] Compounds not tested in the assay were labeled as 4 and shown as grey in the heat map.

[2] = test system: lymphocytes from normal donors; assay: cells; details: Homo sapiens, Lymphocyte, read-out: IC50 normal
Description: (§1) Cell viability was measured using a luciferase-based ATP quantitation assay (CellTiter-Glo^TM, Promega). The intracellular ATP content indicates the number of viable (i.e. metabolically competent) cells after compound treatment. Four µL of CLL cells resuspended in AIM medium at 1,330,000 cells/ml, were dispensed into each well of white, solid bottom, 1536-well tissue culture–treated plates using a Multidrop-Combi dispenser and incubated overnight. After that, a total of 23 nL of compounds at 8 selected concentrations from the NPC library or positive control (10 mM stock of doxorubicin hydrochloride) in DMSO was transferred to each well of the assay plate using a pintool (Kalypsys, San Diego, CA), and the plates were further incubated at 37 °C with 5% CO2 for 24 hours to allow the reaction. Then 4µL of CellTilter-Glo luminescent substrate mix was added to each well. The plate was incubated at room temperature for 15 minutes. The plates were measured on a ViewLux plate reader (PerkinElmer) with clear filter.
(§2) These compounds were then re-tested in the cell viability assay using 12 point titrations with concentration ranging from 57 µM to 0.3 nM with 1:3 dilution.
(§3) Fresh primary cells were also obtained from two unaffected normal donors and seven CLL patients whose blood samples were collected within hours of apheresis and which had not been included in our previous experiments.

[3] = test system: lymphocytes from normal donors; details: for potency shift between CLL and normal donor samples: fresh cells, normal IC50 vs CLL IC50; for difference in efficacy between CLL and unaffected donor samples: at 19 µM and 57 µM, the two highest testing concentrations; for pIC50: read-out: IC50 normal, average of 2 normal donors, fresh, Figure 5
Description: as §1, §2, §3

[4] = test system: fresh CLL patient lymphocytes; assay: cells; details: Homo sapiens
Description: (§4) Cell viability was measured using a luciferase-based ATP quantitation assay (CellTiter-Glo^TM, Promega). The intracellular ATP content indicates the number of viable (i.e. metabolically competent) cells after compound treatment. […] After that, a total of 23 nL of compounds at 8 selected concentrations from the NPC library or positive control (10 mM stock of doxorubicin hydrochloride) in DMSO was transferred to each well of the assay plate using a pintool (Kalypsys, San Diego, CA), and the plates were further incubated at 37 °C with 5% CO2 for 24 hours to allow the reaction. Then 4µL of CellTilter-Glo luminescent substrate mix was added to each well. The plate was incubated at room temperature for 15 minutes. The plates were measured on a ViewLux plate reader (PerkinElmer) with clear filter. […] The test volume of 5,000 cells/4 μL/well was selected as the final assay condition in cell density tests based on the assay performance statistics: signal/background ratio, coefficient of variation and Z’-factor (data not shown).
as §3

primary CLL cells = assay: qHTS luminescent ATP cell viability assay (CellTiter-Glo), primary screen, frozen CLL patient cells; type: cell-based, human; details: for Emax / pIC50: Homo sapiens, CLL cell; for Emax: CLL cells, 24 h, normalized to doxorubicin control, read-out: efficacy (maximal response); for cytotoxicity across CLL cell samples: six CLL patient samples, primary screen
Description: Lymphocytes from 13 CLL treatment naïve patients (Table 1 ) and 5 normal donors were obtained by lymphapheresis with written informed consent and isolated by gradient centrifugation using Lymphocyte Separation Medium (MP Biomedicals, Solon, OH) and used fresh or cryopreserved in liquid nitrogen in 10% dimethyl sulfoxide, 90% FCS. CLL patients were consented on the institutional review board (IRB) approved at the National Heart, Lung, and Blood Institute (NHLBI, Office of Clinical Affairs, Bldg 10, CRC. Room 6-5140, Bethesda, Maryland 20892-1608) with protocol 04-H-0012 and samples from normal donors were collected by the Department of Transfusion Medicine, National Institutes of Health (NIH). This study was approved by the IRB mentioned above. Fresh cells were temporally placed on ice and plated for screening within 3 hrs of apheresis. Frozen cells were thawed the night before the assay and incubated in T175 flask in AIM V medium to recover overnight. Analysis of IGHV gene status was performed as described. CLL samples were cultured in AIM V serum free medium (Gibco-Invitrogen, Long Island, NY).
Compound formatting and qHTS were performed as described previously. The final concentration of the NPC compounds in the 4 µL assay volume ranged from 57 µM to 0.7 nM in 1:5 dilution steps. The positive control plate format was as follows: columns 1 and 3, DMSO only; column 2, doxorubicin, a known cytotoxic chemotherapy agent in a 1:2 dilution series from 10 µM to 5 nM in DMSO; and column 4, doxorubicin at 10 µM in DMSO.
To determine compound activity in the qHTS assay, the concentration-response data for each sample was plotted and modeled by a four parameter logistic fit yielding IC50 and efficacy (maximal response) values as previously described. Data normalization and curve fitting were performed using in-house informatics tools. Briefly, raw plate reads for each titration point were first normalized relative to the positive control compound (100%) and DMSO-only wells (basal, 0%), and then corrected by applying a pattern correction algorithm using compound-free control plates (i.e., DMSO-only plates) at the beginning and end of the NPC compound plate stack. […] In brief, Class 1.1 and 1.2 were the highest-confidence complete CRCs containing upper and lower asymptotes with efficacies ≥ 80% and < 80%, respectively. Class 2.1 and 2.2 were incomplete CRCs having only one asymptote with efficacy ≥ 80% and < 80%, respectively.
Compounds from the primary qHTS screen were further classified into three categories according to the quality of curve fit and efficacy.

caspase-3/7 = assay: Caspase-Glo 3/7 activation assay in CLL samples; type: cell-based, human; details: read-out: EC50 caspase-3/7 activity
Description: The effect of selected compounds on caspase activity was measured using a homogeneous luminescent method (Caspase-Glo® 3/7, 8 and 9 kits, Promega, Madison, WI). Briefly in this assay, caspase induced by cells cleaves a pro-luciferin substrate where a tetrapeptide caspase substrate - DEVD (asp-glu-val-asp) is cleaved to free aminoluciferin, which can be used as a substrate by luciferase yielding a bioluminescent signal. The luminescent signal is proportional to the amount of caspase activity present in the cells. Cells were dispensed in culture medium at 5,000/cells/5uL/well in 1536-well white/solid-bottom assay plates. The cells were incubated for overnight at 37°C. The compounds (23nL/well) were added via the pin tool. The treated cells were further incubated for 24 h at 37°C, followed by the addition of the Caspase-Glo 3/7, 8 or 9 reagents at 5uL/well. After a 30 min incubation at room temperature, the luminescence intensity of the assay plates was measured using a ViewLux Plate Reader. The caspase activity was normalized to DMSO control.

[5] = test system: fresh CLL patient lymphocytes
Description: as §4, §3

[6] = Lymphocyte, read-out: IC50 CLL, average of cells from 7 CLL patients, fresh, Figure 5
[7] = read-out: IC50 CLL, average of cells from 7 CLL patients, fresh, Figure 5
[8] = Lymphocyte, 24 h, confirmation assay, fresh CLL samples, Table S1
[9] = confirmation assay, fresh CLL samples, 24 h, Table S1

CC(=O)[O][Hg][c]1ccccc1 [phenylmercuric acetate]
cytotoxicity in ME-180 cells [1]: prominent cytotoxicity

COc1cccc2c1C(=O)c1c(O)c3c(c(O)c1C2=O)C[C@@](O)(C(=O)CO)C[C@@H]3O[C@H]1C[C@H](N)[C@H](O)[C@H](C)O1 [doxorubicin]
pIC50 [2]: 4.84 | potency shift between CLL and normal donor samples [3]: 3 fold | pIC50 [4, 6]: 5.35

COc1cc([C@@H]2c3cc4c(cc3[C@@H](O[C@@H]3O[C@@H]5CO[C@@H](c6cccs6)O[C@H]5[C@H](O)[C@H]3O)[C@H]3COC(=O)[C@H]23)OCO4)cc(OC)c1O [teniposide]
Emax (primary CLL cells): < 80%

COc1cc([C@@H]2c3cc4c(cc3[C@H](O)[C@H]3COC(=O)[C@H]23)OCO4)cc(OC)c1OC [podofilox]
pIC50 [2]: 6.82 | cytotoxicity on lymphocytes derived from unaffected donors [3]: almost no cytotoxicity | difference in efficacy between CLL and unaffected donor samples [3]: over 40% | decreased efficacy against B-cells from normal donors ([3]; at the testing concentration of 1.7 µM): approximately 40% | potency shift between CLL and normal donor samples [3]: about 3 fold | pEC50 (caspase-3/7; Homo sapiens, 24 h): > 7.00 | efficacy (cytotoxicity) ([5]; human): > 60% | pIC50 [5, 7]: > 6.00 | pIC50 ([5]; read-out: IC50 CLL, average of cells from 7 CLL patients, fresh, Figure 5, listed as Podofilox): 7.22

O=C1c2c(O)ccc(O)c2C(=O)c2c(NCCNCCO)ccc(NCCNCCO)c21 [mitoxantrone]
pIC50 [2]: 5.15 | pIC50 ([4]; CLL cell, read-out: potency, comparable cell killing against CLL cells and normal lymphocytes): 5.22 | pIC50 [4, 8]: ~5.27 | pIC50 [4, 6]: 5.14

Cc1c2oc3c(C)ccc(C(=O)N[C@@H]4C(=O)N[C@H](C(C)C)C(=O)N5CCC[C@H]5C(=O)N(C)CC(=O)N(C)[C@@H](C(C)C)C(=O)O[C@@H]4C)c3nc-2c(C(=O)N[C@@H]2C(=O)N[C@H](C(C)C)C(=O)N3CCC[C@H]3C(=O)N(C)CC(=O)N(C)[C@@H](C(C)C)C(=O)O[C@@H]2C)c(N)c1=O [actinomycin D] (I: T[dV]P[Sar][NMeV] / II: T[dV]P[Sar][NMeV]; ester I:1-I:C, II:1-II:C; linker I:N-II:N via Actinocin(9to1))
pIC50 ([4]; Lymphocyte, 24 h): > 6.00

Cc1cc(-c2ccc(/N=N/c3c(S(=O)(=O)O)cc4cc(S(=O)(=O)O)cc(N)c4c3O)c(C)c2)ccc1/N=N/c1c(S(=O)(=O)O)cc2cc(S(=O)(=O)O)cc(N)c2c1O [trypan blue]
cytotoxicity in ME-180 cells [1]: prominent cytotoxicity

plicamycin
difference in efficacy between CLL and unaffected donor samples [3]: over 40% | potency shift between CLL and normal donor samples [3]: about 3 fold | pIC50 [3]: 6.08 | decreased efficacy to normal B cells ([3]; versus CLL cells): over 40% | pEC50 (caspase-3/7; CLL samples, 24 hours): 6.37 | pIC50 [5, 9]: > 6.00 | pIC50 [5, 7]: 6.12

Cn1c(CCCC(=O)O)nc2cc(N(CCCl)CCCl)ccc21 [bendamustine]
pIC50 ([4]; Lymphocyte, 24 h): 4.52 to 4.92

CC(=O)[C@]1(O)Cc2c(O)c3c(c(O)c2[C@@H](O[C@H]2C[C@H](N)[C@H](O)[C@H](C)O2)C1)C(=O)c1ccccc1C3=O [idarubicin]
pIC50 (primary CLL cells; CLL patient #4705): 5.49 | pIC50 (primary CLL cells; CLL patient #4789): 7.00 | pIC50 (primary CLL cells; CLL patient #4808): 7.00 | potency shift (primary CLL cells; patient #4705 compared to #4789 and #4808): 32 fold | pIC50 [4, 8]: > 6.00

CO[C@@H]1[C@H](O)C[C@@H](O[C@@H]2C[C@H](Oc3cc4cc5c(c(O)c4c(O)c3C)C(=O)[C@@H](O[C@H]3C[C@@H](O[C@H]4C[C@@H](O[C@H]6C[C@](C)(O)[C@@H](OC(C)=O)[C@H](C)O6)[C@H](O)[C@@H](C)O4)[C@H](O)[C@@H](C)O3)[C@H]([C@H](OC)C(=O)[C@@H](O)[C@@H](C)O)C5)O[C@H](C)[C@@H]2OC(C)=O)O[C@@H]1C [chromomycin A3]
pIC50 ([4]; Lymphocyte, 24 h): > 6.00

CC[C@]1(O)C[C@H]2CN(CCc3c([nH]c4ccccc34)[C@@](C(=O)OC)(c3cc4c(cc3OC)N(C=O)[C@H]3[C@@](O)(C(=O)OC)[C@H](OC(C)=O)[C@]5(CC)C=CCN6CC[C@]43[C@@H]65)C2)C1 [vincristine]
pIC50 [5, 9]: > 6.00

CN(C)c1ccc(C(=C2C=CC(=[N+](C)C)C=C2)c2c(O)c(S(=O)(=O)[O-])cc3cc(S(=O)(=O)[O-])ccc23)cc1.[Na+] [lissamine green B]
cytotoxicity in ME-180 cells [1]: prominent cytotoxicity

CC[C@@]1(O)C[C@H](O[C@H]2C[C@H](N(C)C)[C@H](O[C@H]3C[C@H](O)[C@H](O[C@H]4CCC(=O)[C@H](C)O4)[C@H](C)O3)[C@H](C)O2)c2c(cc3c(c2O)C(=O)c2c(O)cccc2C3=O)[C@H]1C(=O)OC [aclarubicin hydrochloride]
pIC50 ([4]; Lymphocyte, 24 h): > 6.00

COc1cc2c(cc1O)CCN[C@]21CS[C@@H]2c3c(OC(C)=O)c(C)c4c(c3[C@H](COC1=O)N1[C@@H]2[C@H]2c3c(cc(C)c(OC)c3O)C[C@@H]([C@@H]1O)N2C)OCO4 [trabectedin]
cytotoxicity across CLL cell samples (primary CLL cells): cytotoxicity in all CLL cell samples at similar concentrations | pIC50 [4, 8]: > 6.00

CC(C)C[C@H](NC(=O)[C@H](Cc1ccccc1)NC(=O)c1cnccn1)B(O)O [bortezomib]
cytotoxicity across CLL cell samples (primary CLL cells): cytotoxicity in all CLL cell samples at similar concentrations | pIC50 [4, 8]: > 6.00

C[C@H]1CC[C@]2(NC1)O[C@H]1C[C@H]3[C@@H]4CC[C@H]5C[C@@H](O[C@@H]6O[C@H](CO)[C@H](O[C@@H]7O[C@H](CO)[C@@H](O)[C@H](O[C@@H]8OC[C@@H](O)[C@H](O)[C@H]8O)[C@H]7O[C@@H]7O[C@H](CO)[C@@H](O)[C@H](O)[C@H]7O)[C@H](O)[C@H]6O)CC[C@]5(C)[C@H]4CC[C@]3(C)[C@H]1[C@@H]2C [tomatine]
cytotoxicity in ME-180 cells [1]: prominent cytotoxicity

CC[C@]1(O)C[C@@H]2CN(CCc3c([nH]c4ccccc34)[C@@](C(=O)OC)(c3cc4c(cc3OC)N(C)[C@H]3[C@@](O)(C(=O)OC)[C@H](OC(C)=O)[C@]5(CC)C=CCN6CC[C@]43[C@@H]65)C2)C1 [vinblastine]
fold more potent in CLL sample #4808 than #4399 (primary CLL cells; CLL sample #4808 vs #4399): > 100 fold | Emax (primary CLL cells): > 80%

ivermectin
cytotoxicity in ME-180 cells [1]: prominent cytotoxicity

Nc1nc(F)nc2c1ncn2[C@@H]1O[C@H](CO)[C@@H](O)[C@@H]1O [fludarabine]
pIC50 [3]: 5.03 | pIC50 [5, 7]: 4.91 | pIC50 ([5]; read-out: potency, comparable cell killing against CLL cells and normal lymphocytes): 4.92

COC(=O)C[C@](O)(CCCC(C)(C)O)C(=O)O[C@@H]1C(OC)=C[C@]23CCCN2CCc2cc4c(cc2[C@H]13)OCO4 [omacetaxine mepesuccinate]
pIC50 [4, 8]: > 6.00

C[n+]1cc2c3c(ccc2c2ccc4cc5c(cc4c21)OCO5)OCO3 [sanguinarine]
cytotoxicity in ME-180 cells [1]: prominent cytotoxicity
